The structures appear in SMILES notation.

The record followed here is US20040242463A1, “Compositions for stabilizing oxygen-labile species” (priority 1999, published 2004).

A short description of the data set: Stability of formulations containing retinol, ascorbic acid and/or tocopherol, HPLC assay. The class given is physicochemical. An excerpt:
The stability of different formulations containing retinol, ascorbic acid and/or tocopherol as set forth in Examples 7 and 8 below were monitored in terms of appearance and HPLC assay. The degraded products of retinol, ascorbic acid or tocopherol are yellow or brownish in color. The freshly prepared samples were white creams. Discoloration to yellow or brown indicates the instability.

For `O=C1O[C@H]([C@@H](O)CO)C(O)=C1O` [ascorbic acid], the “Effect on stability of tocopherol” value was “assists in stabilizing tocopherol”.

As for `CC(=O)N[C@@H](CS)C(=O)O` [N-acetlcysteine, N-acetylcysteine], the “Effect of addition on the stability of retinol and tocopherol” value is “slightly enhances”.
